From patent US11254668B2, “Pyrazolo[1,5-A]pyrazin-4-yl and related derivatives” (Pfizer Inc., priority 2017, dated 2022) come the findings set out here.

The term pIC50 denotes −log10 of the IC50, conventionally taken in molar units.

SMILES strings stand for the structures. pIC50: −log10 of the molar value.

What all share (assay type): biochemical
For one test, the target named is JAK3 (Homo sapiens (Human), UniProt P52333). In words: JAK Caliper Enzyme Assay at 1 mM ATP, JAK3. An outline of the steps: (§1)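 Recombinant human kinase domains phosphorylate a fluorescent synthetic peptide at 1 mM ATP, room temperature, with enzyme and time tuned for 20-30% conversion; EDTA-stopped. Product/substrate separated by microfluidic mobility shift; percent effect versus DMSO and positive controls fitted to IC50 (nM).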

For the next test, the target named is TYK2 (Homo sapiens (Human), UniProt P29597). In words: JAK Caliper Enzyme Assay at 1 mM ATP, TYK2. An outline of the steps: (§2)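 Human recombinant kinase domain + fluorescently labelled synthetic peptide, 1 mM ATP, RT; enzyme level/time set for 20–30% phosphorylation. EDTA stop. LabChip separation, peak-height % conversion, % effect vs plate controls.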
A further test addresses JAK1 (Homo sapiens (Human), UniProt P23458). The experiment in a line: JAK Caliper Enzyme Assay at 1 mM ATP, JAK1. In a few lines:
as §1

The target in the next test is JAK2 (Homo sapiens (Human), UniProt O60674). The experiment in a line: JAK Caliper Enzyme Assay at 1 mM ATP, JAK2. An outline of the steps: as §2
Chain of JAK2 (O60674 849-1124): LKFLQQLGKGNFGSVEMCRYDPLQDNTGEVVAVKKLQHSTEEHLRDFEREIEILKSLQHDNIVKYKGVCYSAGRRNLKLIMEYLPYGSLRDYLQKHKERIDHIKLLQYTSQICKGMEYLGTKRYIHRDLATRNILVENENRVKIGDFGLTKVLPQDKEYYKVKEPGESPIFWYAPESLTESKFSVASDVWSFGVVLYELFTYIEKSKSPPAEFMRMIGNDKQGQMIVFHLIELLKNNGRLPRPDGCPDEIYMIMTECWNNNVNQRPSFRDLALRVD

Chain of JAK1 (P23458 875-1153): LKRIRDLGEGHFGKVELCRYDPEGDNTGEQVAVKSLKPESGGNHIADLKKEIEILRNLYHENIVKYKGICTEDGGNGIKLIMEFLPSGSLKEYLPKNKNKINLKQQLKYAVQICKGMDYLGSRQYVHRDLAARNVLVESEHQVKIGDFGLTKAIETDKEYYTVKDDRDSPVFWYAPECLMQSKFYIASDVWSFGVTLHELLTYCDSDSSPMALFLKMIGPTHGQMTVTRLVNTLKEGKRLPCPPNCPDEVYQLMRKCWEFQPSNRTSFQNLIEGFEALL
Chain of JAK3 (P52333 822-1111): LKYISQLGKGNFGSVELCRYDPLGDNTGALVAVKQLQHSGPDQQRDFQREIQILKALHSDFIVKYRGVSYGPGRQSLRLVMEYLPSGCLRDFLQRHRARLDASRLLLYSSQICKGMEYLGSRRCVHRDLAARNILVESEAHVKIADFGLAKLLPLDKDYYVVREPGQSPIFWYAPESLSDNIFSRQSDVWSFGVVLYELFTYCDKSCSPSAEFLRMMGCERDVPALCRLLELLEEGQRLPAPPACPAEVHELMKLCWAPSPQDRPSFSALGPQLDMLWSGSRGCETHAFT
Chain of TYK2 (P29597 897-1176): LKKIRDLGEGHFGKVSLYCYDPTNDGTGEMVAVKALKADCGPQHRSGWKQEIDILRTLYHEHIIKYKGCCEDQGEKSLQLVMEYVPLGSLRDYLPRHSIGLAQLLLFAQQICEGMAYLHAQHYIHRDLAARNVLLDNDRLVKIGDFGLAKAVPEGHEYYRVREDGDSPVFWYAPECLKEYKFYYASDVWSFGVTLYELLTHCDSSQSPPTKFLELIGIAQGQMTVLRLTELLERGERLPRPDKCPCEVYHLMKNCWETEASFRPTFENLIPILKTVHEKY

Consider `CCN1CC(CC#N)(n2ccc(-c3nc(-c4cc(N)n(C)n4)cc4ncccc34)n2)C1` [Example 64, (3-{3-[7-(5-amino-1-methyl-1H-pyrazol-3-yl)-1,6-naphthyridin-5-yl]-1H-pyrazol-1-yl}-1-ethylazetidin-3-yl)acetonitrile], for which the negative-log IC50 (pIC50) on JAK3 is below 5.00; at TYK2, 6.36; on JAK1, below 5.00; at JAK2, 5.23.
Take `Cn1nc(-c2cc3ncccc3c(-c3ccn([C@]4(CC#N)C[C@](C)(C#N)C4)n3)n2)cc1N` [Example 67, cis-3-{3-[7-(5-amino-1-methyl-1H-pyrazol-3-yl)-1,6-naphthyridin-5-yl]-1H-pyrazol-1-yl}-3-(cyanomethyl)-1-methylcyclobutanecarbonitrile]: the pIC50 on JAK3 is below 5.00; at TYK2 it was 7.41; on JAK1, 5.66; on JAK2, 6.61.
On the same counts, the results for `Cn1nc(-c2cc3ncccc3c(-c3ccn([C@]4(CC#N)C[C@@](C)(C#N)C4)n3)n2)cc1N` [Example 68, trans-3-{3-[7-(5-amino-1-methyl-1H-pyrazol-3-yl)-1,6-naphthyridin-5-yl]-1H-pyrazol-1-yl}-3-(cyanomethyl)-1-methylcyclobutanecarbonitrile] are below 5.00, 5.80, below 5.00 and 5.36.
Turning to `CNc1cc(-c2cc3ncccc3c(-c3ccn([C@]4(CC#N)C[C@H](C#N)C4)n3)n2)nn1C` [Example 69, cis-3-(cyanomethyl)-3-(3-{7-[1-methyl-5-(methylamino)-1H-pyrazol-3-yl]-,6-naphthyridin-5-yl}-1H-pyrazol-1-yl)cyclobutanecarbonitrile], the negative-log IC50 (pIC50) on JAK3 is below 5.00; on TYK2, 6.80; at JAK1, 5.47; on JAK2, 6.25.
On the same counts, the results for `CNc1cc(-c2cc3ncccc3c(-c3ccn([C@]4(CC#N)C[C@@H](C#N)C4)n3)n2)nn1C` [Example 70, trans-3-(cyanomethyl)-3-(3-{7-[1-methyl-5-(methylamino)-1H-pyrazol-3-yl]-1,6-naphthyridin-5-yl}-1H-pyrazol-1-yl)cyclobutanecarbonitrile] are below 5.00, 6.18, below 5.00 and 5.46.
On the same counts, the results for `Cn1nc(-c2cc3ncccc3c(-c3ccn([C@]4(CC#N)C[C@@H](C#N)C4)n3)n2)cc1CN` [Example 71, trans-3-(3-{7-[5-(aminomethyl)-1-methyl-1H-pyrazol-3-yl]-1,6-naphthyridin-5-yl}-1H-pyrazol-1-yl)-3-(cyanomethyl)cyclobutanecarbonitrile] are 5.10, 6.96, 5.43 and 6.69.
With `N#CCC1(n2ccc(-c3nc(-c4cc5n(n4)CCNC5)cc4ncccc34)n2)CC(C#N)C1` (stereo not drawn) [Example 72, cis-3-(cyanomethyl)-3-{3-[7-(4,5,6,7-tetrahydropyrazolo[1,5-a]pyrazin-2-yl)-1,6-naphthyridin-5-yl]-1H-pyrazol-1-yl}cyclobutanecarbonitrile], the pIC50 on JAK3 is 5.29; at TYK2 it was 7.55; on JAK1 it was 6.17; on JAK2, 7.32.
The matching figures for `N#CC[C@]1(n2ccc(-c3nc(-c4cc5n(n4)CCNC5)cc4ncccc34)n2)C[C@H](C#N)C1` [Example 73, trans-3-(cyanomethyl)-3-{3-[7-(4,5,6,7-tetrahydropyrazolo[1,5-a]pyrazin-2-yl)-1,6-naphthyridin-5-yl]-1H-pyrazol-1-yl}cyclobutanecarbonitrile]: below 5.00, 7.48, 5.33 and 6.69.
The matching figures for `N#CCC1(n2ccc(-c3nc(-c4cn[nH]c4)cc4ncccc34)n2)CN(CC(F)(F)F)C1` [Example 74, [3-{3-[7-(1H-pyrazol-4-yl)-1,6-naphthyridin-5-yl]-1H-pyrazol-1-yl}-1-(2,2,2-trifluoroethyl)azetidin-3-yl]acetonitrile]: 5.02, 7.89, 6.66 and 6.57.
Turning to `CS(=O)(=O)N1CC(CC#N)(n2ccc(-c3nc(-c4cn[nH]c4)cc4ncccc34)n2)C1` [Example 75, [1-(methylsulfonyl)-3-{3-[7-(1H-pyrazol-4-yl)-1,6-naphthyridin-5-yl]-1H-pyrazol-1-yl}azetidin-3-yl]acetonitrile], the pIC50 at JAK3 is below 5.00; at TYK2, 7.34; on JAK1 it was 6.17; on JAK2 it was 6.35.
As to `N#CCC1(n2ccc(-c3nc(-c4cn[nH]c4)cc4ncccc34)n2)CC(C#N)C1` (stereo not drawn) [Example 76, cis-3-(cyanomethyl)-3-{3-[7-(1H-pyrazol-4-yl)-1,6-naphthyridin-5-yl]-1H-pyrazol-1-yl}cyclobutanecarbonitrile], the pIC50 at JAK3 was 5.81; at TYK2, 8.15; on JAK1 it was 7.46; on JAK2, 7.48.
With `N#CC[C@]1(n2ccc(-c3nc(-c4cn[nH]c4)cc4ncccc34)n2)C[C@H](C#N)C1` [Example 77, trans-3-(cyanomethyl)-3-{3-[7-(1H-pyrazol-4-yl)-1,6-naphthyridin-5-yl]-1H-pyrazol-1-yl}cyclobutanecarbonitrile], the pIC50 was below 5.00 at JAK3, 7.60 at TYK2, 6.53 at JAK1 and 6.62 at JAK2.
On the same counts, the results for `N#CC[C@H]1C[C@](CC#N)(n2ccc(-c3nc(-c4cn[nH]c4)cc4ncccc34)n2)C1` [Example 79, 2,2′-(trans-1-{3-[7-(1H-pyrazol-4-yl)-1,6-naphthyridin-5-yl]-1H-pyrazol-1-yl}cyclobutane-1,3-diyl)diacetonitrile] are below 5.00, 7.13, 5.98 and 6.11.
On the same counts, the results for `CO[C@H]1C[C@@](CC#N)(n2ccc(-c3nc(-c4cn[nH]c4)cc4ncccc34)n2)C1` [Example 80, (cis-3-methoxy-1-{3-[7-(1H-pyrazol-4-yl)-1,6-naphthyridin-5-yl]-1H-pyrazol-1-yl}cyclobutyl)acetonitrile] are below 5.00, 7.33, 5.97 and 6.03.
As to `CO[C@H]1C[C@](CC#N)(n2ccc(-c3nc(-c4cn[nH]c4)cc4ncccc34)n2)C1` [Example 81, (trans-3-methoxy-1-{3-[7-(1H-pyrazol-4-yl)-1,6-naphthyridin-5-yl]-1H-pyrazol-1-yl}cyclobutyl)acetonitrile], the negative logarithm of the IC50 (pIC50) on JAK3 is below 5.00; on TYK2 it was 7.00; on JAK1, 5.51; at JAK2 it was 5.66.
On the same counts, the results for `CC(C)(O)[C@H]1C[C@@](CC#N)(n2ccc(-c3nc(-c4cn[nH]c4)cc4ncccc34)n2)C1` [Example 82, [cis-3-(2-hydroxpropan-2-yl)-1-{3-[7-(1H-pyrazol-4-yl)-1,6-naphthyridin-5-yl]-1H-pyrazol-1-yl}cyclobutyl]acetonitrile] are below 5.00, 6.38, 5.45 and 5.62.
The matching figures for `C[C@]1(C#N)C[C@](CC#N)(n2ccc(-c3nc(-c4cn[nH]c4)cc4ncccc34)n2)C1` [Example 83, trans-3-(cyanomethyl)-1-methyl-3-{3-[7-(1H-pyrazol-4-yl)-1,6-naphthyridin-5-yl]-1H-pyrazol-1-yl}cyclobutanecarbonitrile]: below 5.00, 6.39, 5.65 and 5.61.
Consider `C[C@]1(C#N)C[C@@](CC#N)(n2ccc(-c3nc(-c4cn[nH]c4)cc4ncccc34)n2)C1` [Example 84, cis-3-(cyanomethyl)-1-methyl-3-{3-[7-(1H-pyrazol-4-yl)-1,6-naphthyridin-5-yl]-1H-pyrazol-1-yl}cyclobutanecarbonitrile], for which the pIC50 is below 5.00 at JAK3, 7.66 on TYK2, 6.62 on JAK1 and 6.76 on JAK2.
The matching figures for `N#CC[C@]1(n2ccc(-c3nc(-c4cn[nH]c4)cc4ncccc34)n2)C[C@@H](c2ccn[nH]2)C1` [Example 85, [cis-3-(1H-pyrazol-5-yl)-1-{3-[7-(1H-pyrazol-4-yl)-1,6-naphthyridin-5-yl]-1H-pyrazol-1-yl}cyclobutyl]acetonitrile]: 5.28, 7.52, 6.78 and 6.99.
Consider `Cc1n[nH]cc1-c1cc2ncccc2c(-c2ccn(C3(CC#N)CN(S(C)(=O)=O)C3)n2)n1` [Example 88, [3-{3-[7-(3-methyl-1H-pyrazol-4-yl)-1,6-naphthyridin-5-yl]-1H-pyrazol-1-yl}-1-(methylsulfonyl)azetidin-3-yl]acetonitrile], for which the negative-log IC50 (pIC50) is below 5.00 on JAK3, 7.22 on TYK2, 5.79 at JAK1 and 6.06 on JAK2.
On the same counts, the results for `Cc1n[nH]cc1-c1cc2ncccc2c(-c2ccn([C@]3(CC#N)C[C@@H](C#N)C3)n2)n1` [Example 89, trans-3-(cyanomethyl)-3-{3-[7-(3-methyl-1H-pyrazol-4-yl)-1,6-naphthyridin-5-yl]-1H-pyrazol-1-yl}cyclobutanecarbonitrile] are below 5.00, 7.05, 5.88 and 6.11.
